US9914730B2, “Azaquinazoline inhibitors of Atypical protein Kinase C” (Ignyta, Inc., priority 2012, dated 2018)

Molecular target: T1, full-length human PKCι (Homo sapiens, UniProt P41743)
T1 construct: Recombinant, full-length human PKCι expressed in Sf21 insect cells is also commercially available; purchased; host or cells: Sf21 insect cells
T1 sequence (P41743 1-596): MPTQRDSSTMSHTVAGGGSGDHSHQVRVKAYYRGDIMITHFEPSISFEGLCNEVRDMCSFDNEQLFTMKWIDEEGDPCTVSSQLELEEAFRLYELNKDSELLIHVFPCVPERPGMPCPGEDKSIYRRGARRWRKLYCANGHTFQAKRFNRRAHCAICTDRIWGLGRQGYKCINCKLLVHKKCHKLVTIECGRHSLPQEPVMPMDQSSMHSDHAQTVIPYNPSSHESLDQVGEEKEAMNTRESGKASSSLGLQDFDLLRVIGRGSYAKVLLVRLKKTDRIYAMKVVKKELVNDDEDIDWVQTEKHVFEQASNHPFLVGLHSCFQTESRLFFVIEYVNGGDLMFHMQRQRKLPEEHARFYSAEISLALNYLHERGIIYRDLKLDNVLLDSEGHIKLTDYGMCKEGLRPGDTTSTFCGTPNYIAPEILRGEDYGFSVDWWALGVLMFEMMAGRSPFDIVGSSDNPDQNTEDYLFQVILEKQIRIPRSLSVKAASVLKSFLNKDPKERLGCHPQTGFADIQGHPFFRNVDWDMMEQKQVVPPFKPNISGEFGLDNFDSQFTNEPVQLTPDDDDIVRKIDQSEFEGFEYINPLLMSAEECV
Test: PKCι IC50 IMAP assay, full-length PKCι at 150 μM ATP
Assay type: biochemical
Conditions: read-out: IC50 in IMAP assay against full length PKCi at 150 μM ATP
Method in brief: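 Phosphorylation of a 5FAM-tagged PKCε pseudopeptide-derived substrate (100 nM) by full-length recombinant human PKCι was monitored by IMAP fluorescence polarisation. ATP was held at 150 μM, five times its apparent KM, with 60 min room-temperature incubation.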

| Molecule | IC50 |
| --- | --- |
| N[C@H](CNc1nc(-c2ccncc2)nc2c(-c3cccc4ccoc34)nccc12)Cc1ccccc1 [Example 110, N-[(2S)-2-amino-3-phenylpropyl]-8-(1-benzofuran-7-yl)-2-(pyridin-4-yl)pyrido[3,4-d]pyrimidin-4-amine] | 100 to 1000 nM |
| CN(c1nc(-c2ccnc(Nc3nc(F)c(F)cc3F)c2)nc2cncc(C3CCC3)c12)C1CCNCC1 [Example 2163, {5-Cyclobutyl-2-[2-(3,5,6-trifluoro-pyridin-2-ylamino)-pyridin-4-yl]-pyrido[3,4-d]pyrimidin-4-yl}-methyl-piperidin-4-yl-amine] | < 100 nM |
| C[C@@H](Nc1cc(-c2nc(N3CCNCC3)c3c(C4CC4)cncc3n2)ccn1)C1CCCCC1 [Example 811, ((R)-1-Cyclohexyl-ethyl)-[4-(5-cyclopropyl-4-piperazin-1-yl-pyrido[3,4-d]pyrimidin-2-yl)-pyridin-2-yl]-amine] | < 100 nM |
| CN(C)C(=O)c1ccc(Nc2cc(-c3nc(N4CCNCC4)c4c(C5CC5)cncc4n3)ccn2)cc1 [Example 2003, 4-[4-(5-Cyclopropyl-4-piperazin-1-yl-pyrido[3,4-d]pyrimidin-2-yl)-pyridin-2-ylamino]-N,N-dimethyl-benzamide] | < 100 nM |
| CC(C)[C@H]1CN(c2nc(-c3ccnc(Nc4ccccc4)c3)nc3cncc(C4CC4)c23)CCN1 [Example 275, {4-[5-Cyclopropyl-4-((S)-3-isopropyl-piperazin-1-yl)-pyrido[3,4-d]pyrimidin-2-yl]-pyridin-2-yl}-phenyl-amine] | < 100 nM |
| OC[C@H](Nc1cc(-c2nc(N3CCNCC3)c3c(C4CC4)cncc3n2)ccn1)c1ccccc1 [Example 2159, (R)-2-[4-(5-Cyclopropyl-4-piperazin-1-yl-pyrido[3,4-d]pyrimidin-2-yl)-pyridin-2-ylamino]-2-phenyl-ethanol] | 100 to 1000 nM |
| COc1cc(F)c(Nc2cc(-c3nc(N4CCNCC4)c4c(C5CC5)cncc4n3)ccn2)c(F)c1 [Example 590, [4-(5-Cyclopropyl-4-piperazin-1-yl-pyrido[3,4-d]pyrimidin-2-yl)-pyridin-2-yl]-(2,6-difluoro-4-methoxy-phenyl)-amine] | < 100 nM |
| CN(c1nc(-c2ccnc(Nc3nc(F)c(F)cc3F)c2)nc2c(Cl)ncc(C3CC3)c12)C1CCNCC1 [Example 2169, {8-Chloro-5-cyclopropyl-2-[2-(3,5,6-trifluoro-pyridin-2-ylamino)-pyridin-4-yl]-pyrido[3,4-d]pyrimidin-4-yl}-methyl-piperidin-4-yl-amine] | < 100 nM |
| COc1cncc2nc(-c3ccnc(Nc4ccc(Cn5ccnc5)cc4)c3)nc(N[C@@H]3CCNC3)c12 [Example 333, {2-[2-(4-Imidazol-1-ylmethyl-phenylamino)-pyridin-4-yl]-5-methoxy-pyrido[3,4-d]pyrimidin-4-yl}-(R)-pyrrolidin-3-yl-amine] | 1000 to 10000 nM |
| COc1cc(Nc2cc(-c3nc(N4CCNCC4)c4c(C5CC5)cncc4n3)ccn2)cc(OC)c1OC [Example 611, [4-(5-Cyclopropyl-4-piperazin-1-yl-pyrido[3,4-d]pyrimidin-2-yl)-pyridin-2-yl]-(3,4,5-trimethoxy-pheny)-amine] | 100 to 1000 nM |
| Fc1cnc2[nH]c(C(F)(F)F)cc2c1-c1nc(N2CCNCC2)c2c(C3CC3)cncc2n1 [Example 1232, 5-Cyclopropyl-2-(5-fluoro-2-trifluoromethyl-1H-pyrrolo[2,3-b]pyridin-4-yl)-4-piperazin-1-yl-pyrido[3,4-d]pyrimidine] | < 100 nM |

Second part, the molecule after the results:

| IC50 | Molecule |
| --- | --- |
| < 100 nM | CN1CCN(c2cccc(Nc3cc(-c4nc(N5CCN[C@@H](C(F)(F)F)C5)c5c(C6CC6)cncc5n4)ccn3)c2)CC1 [Example 2052, {4-[5-Cyclopropyl-4-((R)-3-trifluoromethyl-piperazin-1-yl)-pyrido[3,4-d]pyrimidin-2-yl]-pyridin-2-yl}-[3-(4-methyl-piperazin-1-yl)-phenyl]-amine] |
| 1000 to 10000 nM | COc1cncc2nc(-c3ccnc(Nc4cc(C#N)ccn4)c3)nc(N3CCC[C@H](O)C3)c12 [Example 426, 2-{4-[4-((S)-3-Hydroxy-piperidin-1-yl)-5-methoxy-pyrido[3,4-d]pyrimidin-2-yl]-pyridin-2-ylamino}-isonicotinonitrile] |
| 10000 to 40000 nM | OCCN1CCN(c2nc(-c3ccncc3)nc3cnccc23)CC1 [Example 34, 2-{4-[2-(pyridin-4-yl)pyrido[3,4-d]-pyrimidin-4-yl]-piperazin-1-yl}-ethan-1-ol] |
| 100 to 1000 nM | c1cc2c(N[C@@H]3CCNC3)nc(-c3ccnc4[nH]ccc34)nc2cn1 [Example 1208, (R)-Pyrrolidin-3-yl-[2-(1H-pyrrolo[2,3-b]pyridin-4-yl)-pyrido[3,4-d]pyrimidin-4-yl]-amine] |
| 1000 to 10000 nM | COc1cncc2nc(-c3ccnc(Nc4ccccc4)c3)nc(N3CCC(C)(O)CC3)c12 [Example 223, 1-[5-Mcthoxy-2-(2-phenylamino-pyridin-4-yl)-pyrido[3,4-d]pyrimidin-4-yl]-4-methyl-piperidin-4-ol] |
| 1000 to 10000 nM | CN(c1nc(-c2ccnc(Nc3ncc(F)cc3F)c2)nc2cncc(C3CC3)c12)C1CCOCC1 [Example 2172, {5-Cyclopropyl-2-[2-(3,5-difluoro-pyridin-2-ylamino)-pyridin-4-yl]-pyrido[3,4-d]pyrimidin-4-yl}-methyl-(tetrahydro-pyran-4-yl)-amine] |
| 100 to 1000 nM | COC[C@H]1CN(c2nc(-c3ccnc4[nH]ccc34)nc3cncc(OC)c23)CCN1 [Example 1205, 5-Methoxy-4-((R)-3-methoxymethyl-piperazin-1-yl)-2-(1H-pyrrolo[2,3-b]pyridin-4-yl)-pyrido[3,4-d]pyrimidine] |
| < 100 nM | C[C@H]1CN(c2nc(-c3ccnc(Nc4ccc(C(F)(F)F)cn4)c3)nc3cncc(C4CC4)c23)CCN1 [Example 839, {4-[5-Cyclopropyl-4-((S)-3-methyl-piperazin-1-yl)-pyrido[3,4-d]pyrimidin-2-yl]-pyridin-2-yl}-(5-trifluoromethyl-pyridin-2-yl)-amine] |
| 1000 to 10000 nM | COc1cccc(Nc2cc(-c3nc(N4CC[C@H](CO)C4)c4c(OC)cncc4n3)ccn2)n1 [Example 471, ((S)-1-{5-Methoxy-2-[2-(6-methoxy-pyridin-2-ylamino)-pyridin-4-yl]-pyrido[3,4-d]pyrimidin-4-yl}-pyrrolidin-3-yl)-methanol] |
| 100 to 1000 nM | Clc1nccc2c(N3CCNCC3)nc(-c3ccncc3)nc12 [Example 32, 1-[8-chloro-2-(pyridin-4-yl)-pyrido[3,4-d]-pyrimidin-4-yl]-piperazine] |
| 100 to 1000 nM | COc1cncc2nc(-c3ccnc(Nc4cc(F)c(F)cc4F)c3)nc(N3CCNCC3)c12 [Example 455, [4-(5-Methoxy-4-piperazin-1-yl-pyrido[3,4-d]pyrimidin-2-yl)-pyridin-2-yl]-(2,4,5-trifluoro-phenyl)-amine] |
| 1000 to 10000 nM | Cc1cccc(-c2nccc3c(NC[C@@H](N)Cc4ccccc4)nc(-c4ccncc4)nc23)c1 [Example 119, N-[(2S)-2-amino-3-phenylpropyl]-8-(3-methyl-phenyl)-2-(pyridin-4-yl)-pyrido[3,4-d]-pyrimidin-4-amine] |
| 100 to 1000 nM | (2,6-Difluoro-phenyl)-{2-[2-(2,6-difluoro-phenylamino)-pyridin-4-yl]-4-piperazin-1-yl-pyrido[3,4-d]pyrimidin-5-yl}-amine [Example 262] |
| 10000 to 40000 nM | NC(=O)N1CCN(c2nc(-c3ccncc3)nc3cnccc23)CC1 [Example 56, 4-[2-(pyridin-4-yl)-pyrido[3,4-d]-pyrimidin-4-yl]-piperazine-1-carboxamide] |
